ChEMBL document CHEMBL3885861, “Open TG-GATES”

Species: Rattus norvegicus
Experiment: Open TG-GATES - Regimen: Single
Format: toxicity, organism-based, Sprague-Dawley
Design: regimen Single, gender Male, age 6 weeks
Conditions: in vivo, po, 200 mg/kg, route gavage, dose level Middle; for APTT / Bas / Eos / Fbg / Hb / Ht / Lym / MCH / MCHC / MCV / Mono / Neu / PT / Plat / RBC / Ret / WBC: tissue Blood; for KIDNEY_L / KIDNEY_R / KIDNEY_TOTAL: tissue Kidney; for LIVER: tissue Liver; for A/G / ALP / ALT / AST / BUN / CRE / Ca / Cl / DBIL / GLC / IP / K / LDH / Na / PL / RALB / TBIL / TC / TG / TP / gamma-GTP: tissue Plasma

C[C@](N)(Cc1ccc(O)c(O)c1)C(=O)O [METHYLDOPA]
TERMINAL_BW (9 h): 186.6 g | APTT (9 h): 16.1 s | Bas (9 h): 0% | Eos (9 h): 1.2% | Fbg (9 h): 268.6 mg/dL | Hb (9 h): 13.1 g/dL | Ht (9 h): 38.8% | Lym (9 h): 77.6% | MCH (9 h): 22.3 pg | MCHC (9 h): 33.8% | MCV (9 h): 66 fL | Mono (9 h): 2.8% | Neu (9 h): 17.6% | PT (9 h): 12.2 s | Plat (9 h): 121.1 x10_4/uL | RBC (9 h): 588.8 x10_4/ul | Ret (9 h): 10.8% | WBC (9 h): 53.5 x10_2/uL | KIDNEY_L (9 h): 0.8 g | KIDNEY_R (9 h): 0.8 g | KIDNEY_TOTAL (9 h): 1.6 g | LIVER (9 h): 7.2 g | A/G (9 h): 0.9 | ALP (9 h): 1466.4 IU/L | ALT (9 h): 43.4 IU/L | AST (9 h): 71.8 IU/L | BUN (9 h): 7 mg/dL | CRE (9 h): 0.1 mg/dL | Ca (9 h): 11 mg/dL | Cl (9 h): 107 meq/L | DBIL (9 h): 0.008 mg/dL | GLC (9 h): 203.2 mg/dL | IP (9 h): 11.2 mg/dL | K (9 h): 4.9 meq/L | LDH (9 h): 57.4 IU/L | Na (9 h): 143.6 meq/L | PL (9 h): 131.6 mg/dL | RALB (9 h): 2.5 g/dL | TBIL (9 h): 0.07 mg/dL | TC (9 h): 83.6 mg/dL | TG (9 h): 49.6 mg/dL | TP (9 h): 5.3 g/dL | gamma-GTP (9 h): 1 IU/L | TERMINAL_BW (24 h): 192.7 g | APTT (24 h): 16 s | Bas (24 h): 0% | Eos (24 h): 1% | Fbg (24 h): 251.2 mg/dL | Hb (24 h): 13.2 g/dL | Ht (24 h): 39.1% | Lym (24 h): 75.4% | MCH (24 h): 22.1 pg | MCHC (24 h): 33.9% | MCV (24 h): 65.1 fL | Mono (24 h): 2.8% | Neu (24 h): 20.4% | PT (24 h): 12.6 s | Plat (24 h): 115.8 x10_4/uL | RBC (24 h): 600.4 x10_4/ul | Ret (24 h): 9.3% | WBC (24 h): 76.2 x10_2/uL | KIDNEY_L (24 h): 0.9 g | KIDNEY_R (24 h): 0.8 g | KIDNEY_TOTAL (24 h): 1.7 g | LIVER (24 h): 8.9 g | A/G (24 h): 0.9 | ALP (24 h): 1671.8 IU/L | ALT (24 h): 58.2 IU/L | AST (24 h): 80.8 IU/L | BUN (24 h): 15.8 mg/dL | CRE (24 h): 0.2 mg/dL | Ca (24 h): 11.4 mg/dL | Cl (24 h): 107.6 meq/L | DBIL (24 h): 0.014 mg/dL | GLC (24 h): 191 mg/dL | IP (24 h): 8.6 mg/dL | K (24 h): 4.6 meq/L | LDH (24 h): 73.6 IU/L | Na (24 h): 144.4 meq/L | PL (24 h): 136.4 mg/dL | RALB (24 h): 2.6 g/dL | TBIL (24 h): 0.064 mg/dL | TC (24 h): 80 mg/dL | TG (24 h): 68.6 mg/dL | TP (24 h): 5.5 g/dL | gamma-GTP (24 h): 1 IU/L
